Here are results for 1 compound from patent US20050085447A1, “Pyrido[3,4-d]pyrimidine derivatives as matrix metalloproteinase-13 inhibitors” (Warner-Lambert Company LLC, priority 2003, published 2005).

One experiment concerns male Wistar rats. The experiment is described as follows: Monosodium iodoacetate-induced osteoarthritis in rat model of cartilage damage (MIA Rat). Particulars: for inhibition of cartilage erosion (surface area of erosion) versus vehicle control / rats in the treatment group that exhibited no cartilage erosion: 4 weeks. The class given is in vivo. An excerpt:
One end result of the induction of osteoarthritis in this model, as determined by histologic analysis, is the development of an osteoarthritic condition within the affected joint, as characterized by the loss of Toluidine blue staining and formation of osteophytes. Associated with the histologic changes is a concentration-dependent degradation of joint cartilage, as evidenced by affects on hind-paw weight distribution of the limb containing the affected joint, the presence of increased amounts of proteoglycan or hydroxyproline in the joint upon biochemical analysis, or histopathological analysis of the osteoarthritic lesions.
In the MIA Rat model on Day 0, the hind-paw weight differentials between the right arthritic joint and the left healthy joint of male Wistar rats (150 g) were determined with an incapacitance tester, model 2KG (Linton Instrumentation, Norfolk, United Kingdom). […] Then the rats were anesthetized with isofluorine, and the right, hind leg knee joint was injected with 1.0 mg of mono-iodoacetate (“MIA”) through the infrapatellar ligament. […] The rats were further administered either the compound of Compound Example 1 or vehicle (in the instant case, water) daily for 14 days or 28 days. The compound of Compound Example 1 was administered at doses of 1, 3, 10, and 30 milligrams per kilogram of rat per day, but invention compounds may be administered at other doses such as, for example, 60 mg/kg/day, 90-mg/kg/day, or 100 mg/kg/day according to the requirements of the compound being studied. It is well within the level of ordinary skill in the pharmaceutical arts to determine a proper dosage of an invention compound in this model.
Generally, an invention compound may be administered in this model by oral administration, but optionally intravenous administration via an osmotic pump could be employed. After 7 and 14 days for a two-week study, or 7, 14, and 28 days for a four-week study, the hind-paw weight distribution may be determined. […] This change in weight distribution was proportional to the degree of joint cartilage damage. Percent inhibition of a change in hind paw joint function was calculated as the percent change in hind-paw weight distribution for treated animals versus control animals. For example, for a two week study,
In the present study the compound of Compound Example 1 was administered perorally, and hind-paw weight differentials were determined at both 2 and 4 weeks. Further, in order to detect the presence of erosion of cartilage in the joints, the animals in the above study were sacrificed at 4 weeks, and the presence or absence of cartilage erosion was determined. The proportion of subjects without hind limb erosions was determined via an Exact Sequential Cochran-Armitage Trend test (SAS® Institute, 1999). The Cochran-Armitage Trend test was employed to determine whether the proportion of positive or “Yes” responders increases or decreases with increasing levels of treatment. For this particular study, it was expected that the number of animals without joint erosions increased with increasing dose.

Another experiment deals with T1, MMP-9 full-length (Homo sapiens, UniProt P14780).
T1 construct: MMP-8 full-length, MMP-9 full-length, MMP-12 catalytic domain
T1 sequence (P14780 94-707): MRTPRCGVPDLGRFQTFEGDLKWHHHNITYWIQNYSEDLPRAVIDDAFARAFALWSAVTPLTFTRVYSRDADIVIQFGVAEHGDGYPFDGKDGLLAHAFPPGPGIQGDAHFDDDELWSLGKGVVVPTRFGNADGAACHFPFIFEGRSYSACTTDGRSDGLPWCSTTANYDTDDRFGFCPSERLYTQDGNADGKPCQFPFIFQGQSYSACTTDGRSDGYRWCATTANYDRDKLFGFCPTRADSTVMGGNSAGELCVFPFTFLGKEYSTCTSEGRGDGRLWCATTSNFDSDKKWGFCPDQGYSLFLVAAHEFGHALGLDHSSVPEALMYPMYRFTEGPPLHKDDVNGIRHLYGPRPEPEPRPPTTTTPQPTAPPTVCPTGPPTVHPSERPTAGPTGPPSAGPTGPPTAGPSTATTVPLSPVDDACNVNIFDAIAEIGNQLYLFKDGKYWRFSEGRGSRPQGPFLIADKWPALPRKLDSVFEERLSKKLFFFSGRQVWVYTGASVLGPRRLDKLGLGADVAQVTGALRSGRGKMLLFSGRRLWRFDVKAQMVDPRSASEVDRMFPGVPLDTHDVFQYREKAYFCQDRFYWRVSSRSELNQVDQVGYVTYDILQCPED
The experiment is described as follows: Thiopeptolide substrate hydrolysis inhibition assay, MMP-9 full-length. The class given is biochemical. Particulars: full-length enzyme; read-out: MMP-9FL IC50. The source says:
The assay methods of Biological Examples 1-4 measure the amount by which a test compound reduces the hydrolysis of a thiopeptolide substrate catalyzed by a matrix metalloproteinase enzyme or catalytic domain thereof. It has been shown previously by Ye Qi-Zhuang, Hupe D., and Johnson L. (Current Medicinal Chemistry, 1996;3:407-418) that inhibitor activity against a catalytic domain of an MMP is predictive of the inhibitor activity against the respective full-length MMP enzyme. The methods described below for the inhibition of MMP-13 may also be adapted and used to determine the ability of the compounds of Formula I to inhibit other matrix metalloproteases such as MMP-1, MMP-2, MMP-3, MMP-7, MMP-8, MMP-9, MMP-12, MMP-14, MMP-17, and the like.
Thiopeptolide substrates show virtually no decomposition or hydrolysis at or below neutral pH in the absence of a matrix metalloproteinase enzyme. A typical thiopeptolide substrate commonly utilized for assays is Ac-Pro-Leu-Gly-thioester-Leu-Leu-Gly-OEt. A 100 μL assay mixture will contain 50 mM of N-2-hydroxyethylpiperazine-N′-2-ethanesulfonic acid buffer (“HEPES,” pH 7.0), 10 mM CaCl2, 100 μM thiopeptolide substrate, and 1 mM 5,5′-dithio-bis-(2-nitro-benzoic acid) (DTNB). […] The change in absorbance at 405 nm is monitored on a Thermo Max microplate reader (molecular Devices, Menlo Park, Calif.) at room temperature (22° C.). The calculation of the amount of hydrolysis of the thiopeptolide substrate is based on E412=13600 M^−1 cm^−1 for the DTNB-derived product 3-carboxy-4-nitrothiophenoxide. Assays are carried out with and without matrix metalloproteinase inhibitor compounds, and the amount of hydrolysis is compared for a determination of inhibitory activity of the test compounds.
Test compounds were evaluated at various concentrations in order to determine their respective IC50 values, the micromolar concentration of compound required to cause a 50% inhibition of catalytic activity of the respective enzyme.
Some representative compounds of Formula I have been evaluated for their ability to inhibit MMP-13, MMP-1FL, MMP-3CD, MMP-7FL, MMP-8FL, MMP-9FL, MMP-12CD, MMP-14CD, and/or MMP-17CD, wherein FL means full-length enzyme and CD means a catalytic domain of the full-length enzyme. Test compounds can be evaluated at various concentrations in order to determine their respective IC50 values, the micromolar concentration of compound required to cause a 50% inhibition of the hydrolytic activity of the respective enzyme.
Certain compounds of Formula I have also been assayed with MMP-1 full-length, MMP-3 catalytic domain, MMP-7 full-length, MMP-8 full-length, MMP-9 full-length, MMP-12 catalytic domain, MMP-14 catalytic domain, and MMP-17 catalytic domain. […] In Biological Table 2, the compound example numbers for the Compound Examples are indicated in the column labelled “Ex. No.”

In a further experiment the target is MMP-13 catalytic domain (Homo sapiens, UniProt P45452). The experiment is described as follows: Thiopeptolide substrate hydrolysis inhibition assay, MMP-13 catalytic domain. The class given is biochemical. Particulars: MMP-13 catalytic domain; read-out: MMP-13CD IC50. An excerpt:
The methods described below for the inhibition of MMP-13 may also be adapted and used to determine the ability of the compounds of Formula I to inhibit other matrix metalloproteases such as MMP-1, MMP-2, MMP-3, MMP-7, MMP-8, MMP-9, MMP-12, MMP-14, MMP-17, and the like.
Thiopeptolide substrates show virtually no decomposition or hydrolysis at or below neutral pH in the absence of a matrix metalloproteinase enzyme. A typical thiopeptolide substrate commonly utilized for assays is Ac-Pro-Leu-Gly-thioester-Leu-Leu-Gly-OEt. A 100 μL assay mixture will contain 50 mM of N-2-hydroxyethylpiperazine-N′-2-ethanesulfonic acid buffer (“HEPES,” pH 7.0), 10 mM CaCl2, 100 μM thiopeptolide substrate, and 1 mM 5,5′-dithio-bis-(2-nitro-benzoic acid) (DTNB). […] Assays are carried out with and without matrix metalloproteinase inhibitor compounds, and the amount of hydrolysis is compared for a determination of inhibitory activity of the test compounds.

Molecules are shown by their SMILES.

`COc1ccc(CNC(=O)c2cc3c(=O)n(Cc4ccc(C(=O)O)cc4)cnc3cn2)cc1` [Compound Example 1, 4-[6-(4-methoxy-benzylcarbamoyl)-4-oxo-4H-pyrido[3,4-d]pyrimidin-3-ylmethyl]-benzoic acid]: the “cartilage erosion versus vehicle control (in words)” value in the experiment with male Wistar rats (2 weeks, 1, 3, 10 and 30 mg/kg orally BID) is on record as “inhibited in a dose dependent manner cartilage erosion”. In addition, the “inhibition of cartilage erosion (surface area of erosion) versus vehicle control” value with male Wistar rats (1 mg/kg orally BID) was found to be 40.5%; in the experiment on male Wistar rats (3 mg/kg orally BID), 55.6%; in the experiment with male Wistar rats (10 mg/kg orally BID), 61.6%; in the experiment on male Wistar rats (30 mg/kg orally BID), 32.9%. Also, the “rats in the treatment group that exhibited no cartilage erosion” value was 5/12 in the experiment with male Wistar rats (1 mg/kg orally BID); 7/12 with male Wistar rats (3 mg/kg orally BID, p<0.05 versus vehicle); 7/12 in the experiment on male Wistar rats (10 mg/kg orally BID, p<0.05 versus vehicle); 4/12 with male Wistar rats (30 mg/kg orally BID). Moreover, the IC50 (usually the concentration that gives 50% inhibition) on MMP-9 full-length is greater than 100000 nM; on MMP-13 catalytic domain, 7.7 nM.
